Measured values from ChEMBL document CHEMBL5291721, “A preclinical secondary pharmacology resource illuminates target-adverse drug reaction associations of marketed drugs” (Nat Commun, 2023).

How the values were obtained:
Bile salt export pump = Bile salt export pump (Homo sapiens, UniProt O95342); format: functional
[1] = target: Voltage-gated inwardly rectifying potassium channel KCNH2 (Homo sapiens, UniProt Q12809); format: functional
Acetylcholinesterase = Acetylcholinesterase (Homo sapiens, UniProt P22303); format: functional
Acetylcholinesterase, sequence (P22303 whole entry): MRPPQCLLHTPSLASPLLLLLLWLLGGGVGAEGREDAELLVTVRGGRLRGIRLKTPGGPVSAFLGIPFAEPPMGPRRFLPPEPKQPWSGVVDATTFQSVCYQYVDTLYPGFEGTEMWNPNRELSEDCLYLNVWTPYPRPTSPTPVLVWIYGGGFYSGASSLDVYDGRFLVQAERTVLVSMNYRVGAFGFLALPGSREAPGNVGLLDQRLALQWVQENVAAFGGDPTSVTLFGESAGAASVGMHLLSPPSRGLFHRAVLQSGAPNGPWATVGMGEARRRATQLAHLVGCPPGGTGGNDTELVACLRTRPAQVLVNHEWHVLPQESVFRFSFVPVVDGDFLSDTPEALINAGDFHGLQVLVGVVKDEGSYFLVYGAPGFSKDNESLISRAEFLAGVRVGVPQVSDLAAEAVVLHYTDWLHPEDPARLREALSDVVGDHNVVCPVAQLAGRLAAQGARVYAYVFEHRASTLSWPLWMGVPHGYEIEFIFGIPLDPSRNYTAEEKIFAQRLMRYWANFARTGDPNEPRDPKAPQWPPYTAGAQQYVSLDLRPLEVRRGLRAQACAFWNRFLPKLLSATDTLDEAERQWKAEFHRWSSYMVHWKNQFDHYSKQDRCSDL

[2] = target: T1, Muscarinic acetylcholine receptor M2 (Homo sapiens, UniProt P08172)
T1 sequence (P08172 whole entry): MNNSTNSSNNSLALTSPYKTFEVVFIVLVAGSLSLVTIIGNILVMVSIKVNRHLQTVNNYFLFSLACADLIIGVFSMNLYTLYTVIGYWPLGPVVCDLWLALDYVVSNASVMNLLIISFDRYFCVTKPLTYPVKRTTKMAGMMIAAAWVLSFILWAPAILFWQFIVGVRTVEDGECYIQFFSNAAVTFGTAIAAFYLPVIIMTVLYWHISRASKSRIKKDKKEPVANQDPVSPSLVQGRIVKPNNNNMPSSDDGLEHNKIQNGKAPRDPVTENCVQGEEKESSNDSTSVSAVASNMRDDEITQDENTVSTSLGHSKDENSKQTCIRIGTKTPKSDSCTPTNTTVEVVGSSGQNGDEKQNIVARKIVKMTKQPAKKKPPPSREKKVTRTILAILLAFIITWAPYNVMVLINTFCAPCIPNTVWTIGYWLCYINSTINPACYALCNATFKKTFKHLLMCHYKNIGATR

D(1A) dopamine receptor = D(1A) dopamine receptor (Homo sapiens, UniProt P21728)
D(1A) dopamine receptor, sequence (P21728 whole entry): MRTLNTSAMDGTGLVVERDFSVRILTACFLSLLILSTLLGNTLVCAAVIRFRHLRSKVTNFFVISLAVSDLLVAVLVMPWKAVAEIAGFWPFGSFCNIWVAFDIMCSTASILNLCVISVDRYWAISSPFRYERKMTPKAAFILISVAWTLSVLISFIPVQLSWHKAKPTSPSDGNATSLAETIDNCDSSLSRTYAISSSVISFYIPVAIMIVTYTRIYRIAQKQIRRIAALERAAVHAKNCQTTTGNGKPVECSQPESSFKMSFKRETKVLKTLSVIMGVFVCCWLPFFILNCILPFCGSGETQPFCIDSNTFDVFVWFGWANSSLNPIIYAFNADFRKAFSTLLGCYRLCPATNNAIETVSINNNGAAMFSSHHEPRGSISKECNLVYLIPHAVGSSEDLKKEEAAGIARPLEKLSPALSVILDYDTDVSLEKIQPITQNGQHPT

D(3) dopamine receptor = D(3) dopamine receptor (Homo sapiens, UniProt P35462)
D(3) dopamine receptor, sequence (P35462 whole entry): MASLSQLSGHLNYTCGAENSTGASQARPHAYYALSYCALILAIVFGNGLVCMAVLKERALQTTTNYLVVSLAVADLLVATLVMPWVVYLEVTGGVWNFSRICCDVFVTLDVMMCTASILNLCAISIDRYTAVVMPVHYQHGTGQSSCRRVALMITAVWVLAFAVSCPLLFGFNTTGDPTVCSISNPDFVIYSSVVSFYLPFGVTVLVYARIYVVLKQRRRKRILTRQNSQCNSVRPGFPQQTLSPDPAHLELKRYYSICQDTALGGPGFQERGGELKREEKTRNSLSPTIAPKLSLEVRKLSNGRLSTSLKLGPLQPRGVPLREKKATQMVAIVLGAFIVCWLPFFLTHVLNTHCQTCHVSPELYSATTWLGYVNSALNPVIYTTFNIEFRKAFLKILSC

Prothrombin = Prothrombin (Homo sapiens, UniProt P00734); format: functional
Histamine H3 receptor = Histamine H3 receptor (Homo sapiens, UniProt Q9Y5N1)
[3] = target: T2, 5-hydroxytryptamine receptor 1A (Homo sapiens, UniProt P08908)
T2 sequence (P08908 whole entry): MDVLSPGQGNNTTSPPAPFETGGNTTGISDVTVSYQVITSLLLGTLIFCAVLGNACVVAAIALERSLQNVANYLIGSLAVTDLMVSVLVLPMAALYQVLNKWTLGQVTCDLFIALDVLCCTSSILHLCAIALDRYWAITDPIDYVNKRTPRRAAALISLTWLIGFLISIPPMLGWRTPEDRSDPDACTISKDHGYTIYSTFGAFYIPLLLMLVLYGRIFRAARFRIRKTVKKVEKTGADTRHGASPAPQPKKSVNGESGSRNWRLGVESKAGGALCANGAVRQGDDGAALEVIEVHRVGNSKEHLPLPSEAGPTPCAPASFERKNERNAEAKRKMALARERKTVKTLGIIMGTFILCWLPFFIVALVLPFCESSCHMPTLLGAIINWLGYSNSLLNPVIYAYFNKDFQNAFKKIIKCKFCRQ

[4] = target: 5-hydroxytryptamine receptor 2B (Homo sapiens, UniProt P41595); format: functional, cell-based
5-hydroxytryptamine receptor 2B, sequence (P41595 whole entry): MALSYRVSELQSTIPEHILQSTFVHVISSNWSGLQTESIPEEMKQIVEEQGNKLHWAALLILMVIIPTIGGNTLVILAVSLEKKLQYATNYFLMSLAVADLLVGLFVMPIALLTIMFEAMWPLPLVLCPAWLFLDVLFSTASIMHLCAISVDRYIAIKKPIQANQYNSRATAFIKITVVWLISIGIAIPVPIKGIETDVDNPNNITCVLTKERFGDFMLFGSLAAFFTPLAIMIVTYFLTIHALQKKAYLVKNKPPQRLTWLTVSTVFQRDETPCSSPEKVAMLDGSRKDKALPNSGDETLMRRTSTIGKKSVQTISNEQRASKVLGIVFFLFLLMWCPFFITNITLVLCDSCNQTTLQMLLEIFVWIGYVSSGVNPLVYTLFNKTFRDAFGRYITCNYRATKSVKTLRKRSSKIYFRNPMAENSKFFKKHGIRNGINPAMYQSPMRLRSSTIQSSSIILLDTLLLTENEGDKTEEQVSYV

[5] = target: T3, Amine oxidase [flavin-containing] A (Homo sapiens, UniProt P21397); format: functional
T3 sequence (P21397 whole entry): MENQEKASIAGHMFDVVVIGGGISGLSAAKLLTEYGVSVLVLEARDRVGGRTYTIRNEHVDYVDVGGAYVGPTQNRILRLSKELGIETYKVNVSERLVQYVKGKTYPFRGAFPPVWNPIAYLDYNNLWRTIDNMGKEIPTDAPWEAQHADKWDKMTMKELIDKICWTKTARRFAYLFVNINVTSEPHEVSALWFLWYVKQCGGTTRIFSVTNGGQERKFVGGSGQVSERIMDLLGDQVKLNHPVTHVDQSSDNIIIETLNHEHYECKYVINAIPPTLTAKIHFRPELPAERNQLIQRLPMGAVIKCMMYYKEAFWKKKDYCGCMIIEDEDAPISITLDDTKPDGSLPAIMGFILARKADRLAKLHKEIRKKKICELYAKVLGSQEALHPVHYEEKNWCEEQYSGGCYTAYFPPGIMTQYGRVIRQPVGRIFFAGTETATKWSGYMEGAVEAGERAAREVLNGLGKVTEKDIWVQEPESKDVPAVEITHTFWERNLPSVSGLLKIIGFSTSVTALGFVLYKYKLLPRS

Mu-type opioid receptor = Mu-type opioid receptor (Homo sapiens, UniProt P35372)
Mu-type opioid receptor, sequence (P35372 whole entry): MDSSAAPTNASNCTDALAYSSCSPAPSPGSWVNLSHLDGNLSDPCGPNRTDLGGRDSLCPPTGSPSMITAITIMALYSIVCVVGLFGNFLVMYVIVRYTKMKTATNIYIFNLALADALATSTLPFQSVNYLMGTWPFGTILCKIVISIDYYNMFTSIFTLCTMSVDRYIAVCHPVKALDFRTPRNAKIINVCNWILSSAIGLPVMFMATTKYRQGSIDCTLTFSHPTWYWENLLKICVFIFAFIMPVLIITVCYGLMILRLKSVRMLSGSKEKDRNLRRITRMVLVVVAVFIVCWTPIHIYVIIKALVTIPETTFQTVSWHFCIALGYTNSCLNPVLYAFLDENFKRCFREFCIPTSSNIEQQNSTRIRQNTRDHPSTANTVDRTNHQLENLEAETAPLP

[6] = target: cGMP-inhibited 3',5'-cyclic phosphodiesterase 3A (Homo sapiens, UniProt Q14432); format: functional
[7] = target: Sodium-dependent noradrenaline transporter (Homo sapiens, UniProt P23975)
Sodium-dependent noradrenaline transporter, sequence (P23975 whole entry): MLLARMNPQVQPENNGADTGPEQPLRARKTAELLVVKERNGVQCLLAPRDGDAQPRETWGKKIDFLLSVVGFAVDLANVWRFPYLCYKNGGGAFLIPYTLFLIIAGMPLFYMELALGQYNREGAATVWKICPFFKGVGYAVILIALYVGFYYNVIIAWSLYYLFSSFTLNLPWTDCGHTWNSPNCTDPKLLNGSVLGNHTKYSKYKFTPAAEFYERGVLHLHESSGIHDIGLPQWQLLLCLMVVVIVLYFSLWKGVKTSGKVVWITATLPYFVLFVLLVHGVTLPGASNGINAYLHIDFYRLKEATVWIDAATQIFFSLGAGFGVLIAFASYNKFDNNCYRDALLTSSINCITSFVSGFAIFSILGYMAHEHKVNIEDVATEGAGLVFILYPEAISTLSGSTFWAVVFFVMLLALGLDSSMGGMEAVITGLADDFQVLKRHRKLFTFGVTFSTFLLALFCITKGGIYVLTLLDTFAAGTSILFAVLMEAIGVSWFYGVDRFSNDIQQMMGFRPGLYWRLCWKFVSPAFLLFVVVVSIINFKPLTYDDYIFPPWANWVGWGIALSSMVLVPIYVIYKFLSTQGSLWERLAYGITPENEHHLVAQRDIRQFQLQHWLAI

[8] = target: Sodium-dependent dopamine transporter (Homo sapiens, UniProt Q01959)
Sodium-dependent dopamine transporter, sequence (Q01959 whole entry): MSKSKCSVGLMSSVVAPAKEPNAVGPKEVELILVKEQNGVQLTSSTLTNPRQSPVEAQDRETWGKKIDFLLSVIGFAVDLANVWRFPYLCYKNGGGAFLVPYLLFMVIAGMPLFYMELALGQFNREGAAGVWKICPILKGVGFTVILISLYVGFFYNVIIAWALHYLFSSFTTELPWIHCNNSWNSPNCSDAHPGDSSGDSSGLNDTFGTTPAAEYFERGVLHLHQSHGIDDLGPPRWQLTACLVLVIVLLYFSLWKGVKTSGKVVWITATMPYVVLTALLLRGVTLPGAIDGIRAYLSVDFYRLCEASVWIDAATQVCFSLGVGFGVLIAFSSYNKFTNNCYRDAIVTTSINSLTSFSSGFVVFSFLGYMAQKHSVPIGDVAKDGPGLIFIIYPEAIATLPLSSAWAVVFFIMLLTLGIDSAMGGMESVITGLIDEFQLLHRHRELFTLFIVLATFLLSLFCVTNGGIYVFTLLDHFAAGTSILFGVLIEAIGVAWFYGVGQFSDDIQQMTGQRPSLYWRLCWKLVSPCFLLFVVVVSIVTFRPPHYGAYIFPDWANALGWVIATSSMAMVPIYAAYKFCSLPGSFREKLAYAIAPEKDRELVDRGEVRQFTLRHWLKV

Thromboxane A2 receptor [9] = target: T4, Thromboxane A2 receptor (Homo sapiens, UniProt P21731); format: functional, cell-based
T4 sequence (P21731 whole entry): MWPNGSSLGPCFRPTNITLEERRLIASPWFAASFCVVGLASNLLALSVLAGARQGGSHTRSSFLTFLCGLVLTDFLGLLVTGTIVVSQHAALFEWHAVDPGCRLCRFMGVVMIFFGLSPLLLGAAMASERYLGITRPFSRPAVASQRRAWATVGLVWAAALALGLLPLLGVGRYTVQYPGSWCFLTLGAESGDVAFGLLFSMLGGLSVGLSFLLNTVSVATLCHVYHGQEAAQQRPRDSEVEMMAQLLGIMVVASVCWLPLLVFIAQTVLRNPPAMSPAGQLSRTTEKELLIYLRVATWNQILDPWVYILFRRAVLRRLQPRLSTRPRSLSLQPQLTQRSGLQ

Thromboxane A2 receptor [10] = target: T4, Thromboxane A2 receptor; format: functional, cell-based; remark: listed apart in the source
Further: assay procedure not described here.

Bile salt export pump, sequence (O95342 whole entry): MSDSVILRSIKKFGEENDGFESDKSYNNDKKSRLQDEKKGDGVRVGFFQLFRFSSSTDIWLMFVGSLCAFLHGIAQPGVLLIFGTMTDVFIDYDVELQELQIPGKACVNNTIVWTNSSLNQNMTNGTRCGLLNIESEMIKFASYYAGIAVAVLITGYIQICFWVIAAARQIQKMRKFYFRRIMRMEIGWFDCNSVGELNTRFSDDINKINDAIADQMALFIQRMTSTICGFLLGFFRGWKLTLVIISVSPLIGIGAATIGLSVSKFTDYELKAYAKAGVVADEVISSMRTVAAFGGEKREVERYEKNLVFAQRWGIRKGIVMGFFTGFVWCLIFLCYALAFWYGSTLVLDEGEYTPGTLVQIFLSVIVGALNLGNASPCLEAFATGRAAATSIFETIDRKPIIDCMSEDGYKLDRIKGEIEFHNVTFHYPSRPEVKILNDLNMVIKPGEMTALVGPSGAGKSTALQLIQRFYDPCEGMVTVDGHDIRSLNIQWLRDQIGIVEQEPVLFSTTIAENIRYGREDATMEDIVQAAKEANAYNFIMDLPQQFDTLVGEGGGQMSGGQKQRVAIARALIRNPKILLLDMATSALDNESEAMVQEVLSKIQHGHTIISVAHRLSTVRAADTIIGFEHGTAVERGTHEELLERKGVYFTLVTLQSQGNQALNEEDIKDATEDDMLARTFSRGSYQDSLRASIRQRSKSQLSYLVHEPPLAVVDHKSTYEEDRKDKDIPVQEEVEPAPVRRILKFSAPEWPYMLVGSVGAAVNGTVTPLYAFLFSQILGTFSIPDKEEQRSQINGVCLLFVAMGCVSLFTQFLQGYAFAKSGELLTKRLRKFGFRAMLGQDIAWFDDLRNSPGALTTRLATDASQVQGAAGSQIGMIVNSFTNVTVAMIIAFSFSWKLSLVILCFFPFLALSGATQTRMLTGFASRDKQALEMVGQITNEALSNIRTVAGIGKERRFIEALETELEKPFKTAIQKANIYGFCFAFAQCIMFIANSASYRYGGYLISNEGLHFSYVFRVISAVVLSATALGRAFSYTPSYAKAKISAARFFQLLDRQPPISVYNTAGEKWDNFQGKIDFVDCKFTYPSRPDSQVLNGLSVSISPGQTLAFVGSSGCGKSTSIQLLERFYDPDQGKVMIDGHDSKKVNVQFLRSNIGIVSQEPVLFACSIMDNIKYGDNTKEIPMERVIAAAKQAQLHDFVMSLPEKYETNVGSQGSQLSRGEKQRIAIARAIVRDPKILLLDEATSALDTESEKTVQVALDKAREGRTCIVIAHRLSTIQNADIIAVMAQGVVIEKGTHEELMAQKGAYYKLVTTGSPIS

Structure (SMILES)	AC50 (Bile salt export pump)	AC50 [1]	also measured
O=C1C(CC[S+]([O-])c2ccccc2)C(=O)N(c2ccccc2)N1c1ccccc1 (stereo not drawn) [SULFINPYRAZONE]	24 µM	> 30 µM	–
Cc1onc(-c2ccccc2)c1-c1ccc(S(N)(=O)=O)cc1 [VALDECOXIB]	240 µM	> 30 µM	AC50 (Acetylcholinesterase): > 30 µM; AC50 [2]: > 30 µM; AC50 (D(1A) dopamine receptor): > 30 µM; AC50 (D(3) dopamine receptor): > 30 µM; AC50 (Prothrombin): > 30 µM; AC50 (Histamine H3 receptor): > 30 µM; AC50 [3]: > 30 µM; AC50 [4]: > 30 µM; AC50 [5]: > 30 µM; AC50 (Mu-type opioid receptor): > 30 µM; AC50 [6]: > 30 µM; AC50 [7]: 2.31 µM; AC50 [8]: > 30 µM; AC50 (Thromboxane A2 receptor [9]): > 30 µM; AC50 (Thromboxane A2 receptor [10]): > 30 µM
CN(C)CCC[C@@]1(c2ccc(F)cc2)OCc2cc(C#N)ccc21 [ESCITALOPRAM]	> 300 µM	–	–
Nc1ccc(S(=O)(=O)Nc2nccs2)cc1 [SULFATHIAZOLE]	> 300 µM	> 30 µM	–
CC(C)N(CCC(C(N)=O)(c1ccccc1)c1ccccn1)C(C)C (stereo not drawn) [DISOPYRAMIDE]	> 300 µM	–	–
O=C1CCc2cc(OCCCCc3nnnn3C3CCCCC3)ccc2N1 [CILOSTAZOL]	62 µM	> 30 µM	–
C[C@@H](NCCCc1cccc(C(F)(F)F)c1)c1cccc2ccccc12	58 µM	1.3 µM	–
C=C[C@H]1C[N@@]2CC[C@H]1C[C@@H]2[C@@H](O)c1ccnc2ccc(OC)cc12 [QUINIDINE]	64 µM	–	–
C[C@H]1c2cccc(O)c2C(=O)C2=C(O)[C@]3(O)C(=O)C(C(N)=O)=C(O)[C@@H](N(C)C)[C@@H]3[C@@H](O)[C@@H]21 [DOXYCYCLINE]	> 300 µM	> 30 µM	–
CO[C@H]1/C=C/O[C@@]2(C)Oc3c(C)c(O)c4c(O)c(c(/C=N/N5CCN(C)CC5)c(O)c4c3C2=O)NC(=O)/C(C)=C\C=C\[C@H](C)[C@H](O)[C@@H](C)[C@@H](O)[C@@H](C)[C@H](OC(C)=O)[C@@H]1C [RIFAMPIN]	9.6 µM	> 30 µM	–
C=CC[C@@H]1/C=C(\C)C[C@H](C)C[C@H](OC)[C@H]2O[C@@](O)(C(=O)C(=O)N3CCCC[C@H]3C(=O)O[C@H](/C(C)=C/[C@@H]3CC[C@@H](O)[C@H](OC)C3)[C@H](C)[C@@H](O)CC1=O)[C@H](C)C[C@@H]2OC [TACROLIMUS ANHYDROUS]	11 µM	> 30 µM	–
C[C@]12C=CC(=O)N[C@@H]1CC[C@@H]1[C@@H]2CC[C@]2(C)[C@@H](C(=O)Nc3cc(C(F)(F)F)ccc3C(F)(F)F)CC[C@@H]12 [DUTASTERIDE]	14 µM	> 30 µM	–
COc1ccccc1Oc1c(NS(=O)(=O)c2ccc(C(C)(C)C)cc2)nc(-c2ncccn2)nc1OCCO [BOSENTAN]	18 µM	> 30 µM	–
CCN1CCN(Cc2ccc(Nc3ncc(F)c(-c4cc(F)c5nc(C)n(C(C)C)c5c4)n3)nc2)CC1 [ABEMACICLIB]	33 µM	6 µM	–
COc1ccc(CC2c3cc(OC)c(OC)cc3CC[N+]2(C)CCC(=O)OCCCCCOC(=O)CC[N+]2(C)CCc3cc(OC)c(OC)cc3C2Cc2ccc(OC)c(OC)c2)cc1OC (stereo not drawn)	170 µM	0.16 µM	–
N[C@@H](CC(=O)N1CCn2c(nnc2C(F)(F)F)C1)Cc1cc(F)c(F)cc1F [SITAGLIPTIN]	> 300 µM	–	–

Structure (SMILES)	AC50 (Bile salt export pump)	AC50 [1]	also measured
CC(C(=O)O)c1ccc2c(c1)[nH]c1ccc(Cl)cc12 (stereo not drawn) [CARPROFEN]	120 µM	> 30 µM	–
CN1C[C@H](C(=O)N[C@]2(C)O[C@@]3(O)[C@@H]4CCCN4C(=O)[C@H](Cc4ccccc4)N3C2=O)C=C2c3cccc4[nH]cc(c34)C[C@H]21 [ERGOTAMINE]	25 µM	14.4 µM	–
COc1ccccc1OCCNCC(O)COc1cccc2[nH]c3ccccc3c12 (stereo not drawn) [CARVEDILOL]	79 µM	–	–
CN1C(C(=O)Nc2ccccn2)=C(O)c2ccccc2S1(=O)=O [PIROXICAM]	200 µM	> 30 µM	AC50 (Acetylcholinesterase): > 30 µM; AC50 [2]: > 30 µM; AC50 (D(1A) dopamine receptor): > 30 µM; AC50 (D(3) dopamine receptor): > 30 µM; AC50 (Prothrombin): > 30 µM; AC50 (Histamine H3 receptor): > 30 µM; AC50 [3]: > 30 µM; AC50 [4]: > 30 µM; AC50 [5]: > 30 µM; AC50 (Mu-type opioid receptor): > 30 µM; AC50 [6]: > 30 µM; AC50 [7]: > 30 µM; AC50 [8]: > 30 µM; AC50 (Thromboxane A2 receptor [9]): > 30 µM; AC50 (Thromboxane A2 receptor [10]): > 30 µM
C[C@@H](Oc1cc(-c2cnn(C3CCNCC3)c2)cnc1N)c1c(Cl)ccc(F)c1Cl [CRIZOTINIB]	154 µM	–	–
CN(C)CCc1c[nH]c2ccc(Cn3cncn3)cc12 [RIZATRIPTAN]	> 300 µM	> 30 µM	–
O=C1CN(/N=C/c2ccc(-c3ccc([N+](=O)[O-])cc3)o2)C(O)=N1 [DANTROLENE]	35 µM	> 30 µM	–
CC(N)C12CC3CC(CC(C3)C1)C2 (stereo not drawn) [RIMANTADINE]	> 300 µM	> 30 µM	–
CC(C)c1nc(N(C)S(C)(=O)=O)nc(-c2ccc(F)cc2)c1/C=C/[C@@H](O)C[C@@H](O)CC(=O)O [ROSUVASTATIN]	160 µM	> 30 µM	–
C[C@H](CCC(=O)O)[C@H]1CC[C@H]2[C@@H]3[C@@H](O)C[C@@H]4C[C@H](O)CC[C@]4(C)[C@H]3CC[C@]12C [URSODIOL]	95 µM	> 30 µM	–
CC(C)(C)NCC(O)c1cc(O)cc(O)c1 (stereo not drawn) [TERBUTALINE]	> 300 µM	> 30 µM	–
CN(C)CC[C@@H](c1ccc(Cl)cc1)c1ccccn1 [DEXCHLORPHENIRAMINE]	> 300 µM	–	–
CC(S)C(=O)NCC(=O)O (stereo not drawn) [TIOPRONIN]	> 300 µM	> 30 µM	–
CCN(CC)CCNC(=O)c1c(C)[nH]c(/C=C2\C(=O)Nc3ccc(F)cc32)c1C [SUNITINIB]	34 µM	–	–
CC(C)Cc1ccc(C(C)C(=O)O)cc1 (stereo not drawn) [IBUPROFEN]	> 300 µM	–	AC50 (Acetylcholinesterase): > 30 µM; AC50 [2]: > 30 µM; AC50 (D(1A) dopamine receptor): > 30 µM; AC50 (D(3) dopamine receptor): > 30 µM; AC50 (Prothrombin): > 30 µM; AC50 (Histamine H3 receptor): > 30 µM; AC50 [3]: > 30 µM; AC50 [4]: > 30 µM; AC50 [5]: > 30 µM; AC50 (Mu-type opioid receptor): > 30 µM; AC50 [6]: > 30 µM; AC50 [7]: > 30 µM; AC50 [8]: > 30 µM; AC50 (Thromboxane A2 receptor [9]): > 30 µM; AC50 (Thromboxane A2 receptor [10]): > 30 µM
